# Earlier results as cited in patent publication US6689909B1, “Substituted N-phenyl 2-hydroxy-2-methyl-3,3,3-trifluoropropanamide derivatives which elevate pyruvate dehydrogenase activity” (AstraZeneca AB, priority 1999, dated 2004).
# Columns and labels:
# PDH = settings: single administration, 150 mg/kg, intraperitoneally
# [1] = after repeated administration
smiles,measurement,setting,value
"O=C(O)C(Cl)Cl [DCA, dichloroacetic acid]",proportion of PDH in its active form,PDH,increased the proportion of PDH in its active form
same,plasma glucose,[1],significant decrease in plasma glucose
